Data taken from patent publication US20230128252A1, “PHARMACEUTICAL COMPOSITIONS” (Shenzhen Pharmacin Co., Ltd., priority 2020, published 2023).
Converted amounts (≈) assume the structure as drawn. Read-outs that look alike come from different tables or passages of the source.

Experiments:
[1] = Compatibility of clofazimine and excipients (60° C., 3 days, HPLC); format: physicochemical; settings: for Degradation total impurities: 60° C. for 3 days
Protocol: Clofazimine was dissolved into different excipients with different mass ratios, then the mixture was placed in the condition of 60° C. for 3 days. The total degradation impurities were measured by HPLC and summarized below in Table 25. The excipients were classified by the results as below.

[2] = cited from earlier work; for time to reach peak plasma concentration (Tmax): oral administration
[3] = system: IL-2 secretion of activated Jurkat cells; assay: Inhibition of IL-2 secretion of activated Jurkat cells (ELISA); format: cell-based; settings: 1 μM, 3 μM, and 10 μM in DMSO; PMA+PHA activated; 24 h (FIG. 11)
Protocol: In each group, Jurkat cells were incubated with corresponding formulation. After 24 h, the secretion of IL-2 was detected by ELISA.

[4] = system: chronic discoid lupus erythematosus; settings: human clinical study; cited from earlier work
[5] = Solubility of clofazimine in various solvents; settings: 25 °C, thermodynamic from solid
Protocol: Clofazimine was added to various solvents (2-5 mL) in a 10 mL glass vial, at 25° C., with stirring. […] This cycle was repeated until no further dissolution was observable. The suspension was then centrifuged and the supernatant filtered by microfiltration.

[6] = target: Kv1.3 channels in human Jurkat E6-1 cells (Homo sapiens, UniProt P22001); assay: Inhibition of Kv1.3 channel current, voltage ramp protocol; settings: for Inhibition ratio of Kv1.3 channel current in Jurkat E6-1 cells: n 3
Chain of Kv1.3 channels in human Jurkat E6-1 cells (P22001 whole entry): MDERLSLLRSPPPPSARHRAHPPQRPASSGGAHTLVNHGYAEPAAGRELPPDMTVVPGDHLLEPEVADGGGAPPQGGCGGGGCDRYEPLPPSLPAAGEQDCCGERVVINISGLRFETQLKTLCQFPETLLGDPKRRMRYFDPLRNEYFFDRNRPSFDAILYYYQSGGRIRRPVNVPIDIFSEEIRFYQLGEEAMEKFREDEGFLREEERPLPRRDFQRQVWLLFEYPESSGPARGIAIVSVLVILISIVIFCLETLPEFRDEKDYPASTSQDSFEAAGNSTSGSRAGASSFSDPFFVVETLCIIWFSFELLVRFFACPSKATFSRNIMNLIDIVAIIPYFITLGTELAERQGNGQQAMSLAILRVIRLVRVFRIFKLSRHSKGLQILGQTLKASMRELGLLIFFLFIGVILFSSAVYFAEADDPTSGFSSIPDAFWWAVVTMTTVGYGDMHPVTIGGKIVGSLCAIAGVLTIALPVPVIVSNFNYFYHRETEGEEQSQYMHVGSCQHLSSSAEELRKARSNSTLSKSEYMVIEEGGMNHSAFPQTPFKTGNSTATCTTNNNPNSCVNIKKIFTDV

[7] = Solubility of clofazimine in aqueous media; format: physicochemical; settings: aqueous medium, aqueous with cosolvent or surfactant or cyclodextrin, thermodynamic from solid; pH 4.5 + 0.25% SDS, 25° C.
Protocol: Clofazimine was added to various aqueous media, at various pH values (2-5 mL) in a 10 mL glass vial, at 25° C., with stirring. […] This cycle was repeated until no further dissolution was observable. The suspension was then centrifuged and the supernatant filtered by microfiltration.

[8] = pharmacokinetics and tissue distribution after single-dose topical application in minipigs; format: in vivo, Bama minipigs; settings: Formulation 11 (0.03%) single topical application
Protocol: Studies were performed to evaluate the pharmacokinetics and tissue distribution after a single-dose topical application of Formulation 11 (clofazimine 0.03%) in Bama minipigs. 24 Bama minipigs were divided into 6 groups (n=4), each group of minipigs received a single topical application of Formulation 11 (0.03%) at a dose of 1.5 mg ointment/cm^2. Blood samples, epidermis, dermis, subcutaneous tissue and subcutaneous muscle were collected at 0.5, 4, 24, 48, 72 and 96 hours (one time point for one group) after drug application. A validated LC-MS/MS method was used to determine the concentration of clofazimine in plasma, epidermis, dermis, subcutaneous tissues and subcutaneous muscle and the pharmacokinetic parameters were calculated (the standard curve range of clofazimine is 0.0100˜10.0 ng/mL).

For `CC(C)/N=c1\cc2n(-c3ccc(Cl)cc3)c3ccccc3nc-2cc1Nc1ccc(Cl)cc1` [Clofazimine, N,5-bis(4-chlorophenyl)-3-propan-2-ylimino phenazin-2-amine], the “chemical stability (hydrolysis, oxidation)” value [1] was “easily hydrolyzed and oxidized”, the Degradation total impurities ([1]; Campmul MCM (1:100)) was over 1% and the Degradation total impurities ([1]; Campmul MCM + water (1:100:800)) was over 1%. For the same compound, the Degradation total impurities ([1]; Gelucire 44/14 (1:100)) was over 1%, the Degradation total impurities ([1]; Oleic acid (1:50)) was 0.5-1% and the Degradation total impurities ([1]; Oleic acid + labrasol (1:50:100)) was over 1%. For the same compound, the Degradation total impurities ([1]; PEG 400 (1:400)) was over 1%, the Degradation total impurities ([1]; PEG 3350 (1:400)) was 0-0.5% and the Degradation total impurities ([1]; RH 40 (1:100)) was 0-0.5%. The Degradation total impurities ([1]; Stearyl alcohol (1:70)) was 0-0.5%, the Degradation total impurities ([1]; Tefose 63 (1:100)) was over 1% and the Degradation total impurities ([1]; Vaseline (1:3000)) was 0-0.5%. For the same compound, the Degradation total impurities ([1]; glycerin (1:2500)) was 0-0.5%, the Degradation total impurities ([1]; labrasol (1:100)) was 0.5-1% and the Degradation total impurities ([1]; labrasol + carbomer (1:100:5)) was 0.5-1%. For the same compound, the Degradation total impurities ([1]; labrasol + water (1:100:800)) was 0.5-1%, the Degradation total impurities ([1]; liquid paraffin (1:1000)) was 0-0.5% and the Degradation total impurities ([1]; oleic acid + labrasol + water (1:50:100:800)) was over 1%. The Degradation total impurities ([1]; propyl glycol (1:2500)) was 0-0.5%, the Degradation total impurities ([1]; transcutol + tween 80 (1:100:100)) was over 1% and the Degradation total impurities ([1]; transcutol + water (1:100:800)) was 0.5-1%. The Degradation total impurities ([1]; trascutol (1:100)) was over 1%, the Degradation total impurities ([1]; tween 80 (1:100)) was over 1% and the Degradation total impurities ([1]; tween 80 + water (1:100:800)) was over 1%. The “chemical stability of clofazimine in lipid excipients” value ([1]; lipid excipients such as PEG 3350, stearyl alcohol, vaseline, and liquid paraffin) was “enhanced chemical stability”, the “time to reach peak plasma concentration (Tmax)” value ([2]; fasted state) was 12 h and the “time to reach peak plasma concentration (Tmax)” value ([2]; fed conditions) was 8 h. The absorption rate ([2]; oral, FDA Label information) was 45-62%, the “secretion of IL-2” value [3] was “significantly inhibited” and the “remission of chronic discoid lupus erythematosus” value [4] was “a majority of patients showed remission”. For the same compound, the solubility at 24 h ([5]; organic solvent or mixture) was 7480 µg/mL (≈ 15.8 mM), the solubility at 24 h ([5]; solvent, oil or lipid, Solubility, Castor oil) was 11000 µg/mL (≈ 23.3 mM) and the solubility at 24 h ([5]; solvent, oil or lipid, Solubility, Coconut oil) was 5100 µg/mL (≈ 10.8 mM). It also gave a solubility at 24 h ([5]; solvent, oil or lipid, Solubility, Corn oil) of 5800 µg/mL (≈ 12.3 mM), a solubility at 24 h ([5]; solvent, oil or lipid, Solubility, Glyceryl monooleate) of 8860 µg/mL (≈ 18.7 mM) and a solubility at 24 h ([5]; solvent, oil or lipid, Solubility, Isopropyl myristate) of 8510 µg/mL (≈ 18 mM). The solubility at 24 h ([5]; solvent, oil or lipid, Solubility, Soybean oil) was 5100 µg/mL (≈ 10.8 mM), the solubility at 24 h ([5]; solvent, organic solvent or mixture, Solubility, Ethanol) was 950 µg/mL (≈ 2.01 mM) and the solubility at 24 h ([5]; solvent, organic solvent or mixture, Solubility, Glycerol) was 490 µg/mL (≈ 1.04 mM). The solubility at 24 h ([5]; solvent, organic solvent or mixture, Solubility, Labrasol) was 25400 µg/mL (≈ 53.6 mM), the solubility at 24 h ([5]; solvent, organic solvent or mixture, Solubility, Laurocapram) was 46700 µg/mL (≈ 98.7 mM) and the solubility at 24 h ([5]; solvent, organic solvent or mixture, Solubility, Oleic acid polyethylene glycol glyceride) was 12200 µg/mL (≈ 25.8 mM). For the same compound, the solubility at 24 h ([5]; solvent, organic solvent or mixture, Solubility, PEG 400, 25° C.) was 9510 µg/mL (≈ 20.1 mM), the solubility at 24 h ([5]; solvent, organic solvent or mixture, Solubility, Polyglycerol fatty acid ester) was 4960 µg/mL (≈ 10.5 mM) and the solubility at 24 h ([5]; solvent, organic solvent or mixture, Solubility, Polyoxyethylene hydrogenated castor oil) was 8670 µg/mL (≈ 18.3 mM). For the same compound, the solubility at 24 h ([5]; solvent, organic solvent or mixture, Solubility, Propane 1,2-diol) was 420 µg/mL (≈ 0.887 mM), the solubility at 24 h ([5]; solvent, organic solvent or mixture, Solubility, Transcutol) was 21600 µg/mL (≈ 45.5 mM) and the solubility at 24 h ([5]; solvent, organic solvent or mixture, Solubility, Tween 20, 25° C.) was 7400 µg/mL (≈ 15.6 mM). The solubility at 24 h ([5]; solvent, organic solvent or mixture, Solubility, Tween 80, 25° C.) was 10100 µg/mL (≈ 21.3 mM), the IC50 [6] was 3.3 µM and the “Inhibition ratio of Kv1.3 channel current in Jurkat E6-1 cells” value (“Inhibition ratio” below) ([6]; 0.3 μM) was 7.09 ± 0.86%. For the same compound, the “Inhibition ratio” value ([6]; 1 μM) was 18.89 ± 3.38%, the “Inhibition ratio” value ([6]; 3 μM) was 46.84 ± 4.55% and the “Inhibition ratio” value ([6]; 10 μM) was 70.11 ± 2.91%. For the same compound, the “Inhibition ratio” value ([6]; 20 μM) was 83.62 ± 1.99%, the solubility at 24 h [7] was 710 µg/mL and the “median time to peak dermal concentration” value [8] was “about 4 h”.
